From patent US12447156B2, “Treating progressive familial intrahepatic cholestasis (PFIC) with IBAT inhibitors” (ALBIREO AB, priority 2020, dated 2025)

Test system: patients with PFIC
Test: PEDFIC 2 open-label extension trial, interim analysis: safety (TEAEs)
Format: in vivo, human
Description: Study Design • This phase 3 study included a screening period (for newly enrolled patients [i.e., cohort 2] only) and a 72-week treatment period (FIG. 9) in which all patients received oral, once-daily odevixibat 120 μg/kg. • Patients returned to the clinic 4 and 12 weeks after the first dose of odevixibat and then approximately every 10 to 12 weeks thereafter. • Following the 72-week treatment period, patients either enrolled in an optional extension for continued treatment or returned for a follow-up visit 4 weeks after ending study drug. Outcomes, Assessments, and Statistical Analysis • The primary efficacy outcomes were to assess the effects of odevixibat on sBAs and pruritus, including mean changes and proportion of patients meeting response criteria. • sBA responders were defined as patients who achieved a normalization of sBAs or reduction of ≥70%. • Pruritus responders were defined as patients who achieved a ≥1-point drop on the pruritus assessment. • Secondary outcomes included characterizing the long-term safety and tolerability of odevixibat, as well as the effects of odevixibat on growth, biliary diversion and/or liver transplantation, and markers of cholestasis and liver disease. • For the P1O and PIP groups, there were 2 baselines (PEDFIC 1 baseline and PEDFIC 2 baseline); for those in cohort 2, baseline refers to the value prior to initiation of odevixibat in PEDFIC 2. • This interim analysis focuses on data collected after 24 weeks of treatment in PEDFIC 2. • T tests were used to calculate P values for primary outcomes in the P1O group only; other outcomes were summarized descriptively.

In the case of `CCCCC1(CCCC)CN(c2ccccc2)c2cc(SC)c(OCC(=O)N[C@@H](C(=O)N[C@@H](CC)C(=O)O)c3ccc(O)cc3)cc2S(=O)(=O)N1` [Odevixibat, 1,1-dioxo-3,3-dibutyl-5-phenyl-7-methylthio-8-(N-{(R)-α-[N-((S)-1-carboxypropyl)carbamoyl]-4-hydroxybenzyl}carbamoylmethoxy)-2,3,4,5-tetrahydro-1,2,5-benzothiadiazepine], the “fat-soluble vitamin deficiencies refractory to clinically recommended vitamin supplementation” value (PEDFIC 2) was “no new or worsening fat-soluble vitamin deficiencies”, the “Any TEAE, patients” value (PEDFIC 2, Cohort 2, n = 16) was 8 (50.0) n (%) and the “Drug-related TEAE by preferred term: Blood bilirubin increased” value (PEDFIC 2, Cohort 2, n = 16) was 3 (18.8) n (%). For the same molecule, the “Drug-related TEAE by preferred term: Cough” value (“Drug-related TEAE … Cough” below) (PEDFIC 2, Cohort 2, n = 16) was 0 n (%), the “Drug-related TEAE by preferred term: Diarrhea” value (shortened to “Drug-related TEAE … Diarrhea”) (PEDFIC 2, Cohort 2, n = 16) was 0 n (%) and the “Drug-related TEAE by preferred term: INR increased” value (“Drug-related TEAE … INR increased” below) (PEDFIC 2, Cohort 2, n = 16) was 2 (12.5) n (%). The “Drug-related TEAE by preferred term: Pruritus” value (shortened to “Drug-related TEAE … Pruritus”) (PEDFIC 2, Cohort 2, n = 16) was 0 n (%), the “Drug-related TEAE by preferred term: Pyrexia” value (“Drug-related TEAE … Pyrexia” below) (PEDFIC 2, Cohort 2, n = 16) was 2 (12.5) n (%) and the “Drug-related TEAE by preferred term: URTI” value (“Drug-related TEAE … URTI” for short) (PEDFIC 2, Cohort 2, n = 16) was 0 n (%). The “Drug-related TEAEs, patients” value (PEDFIC 2, Cohort 2, n = 16) was 5 (31.3) n (%), the “Mild TEAE, patients” value (PEDFIC 2, Cohort 2, n = 16) was 2 (12.5) n (%) and the “Moderate TEAE, patients” value (PEDFIC 2, Cohort 2, n = 16) was 3 (18.8) n (%). For the same molecule, the “Serious TEAEs, patients” value (PEDFIC 2, Cohort 2, n = 16) was 1 (6.3) n (%), the “Severe TEAE, patients” value (PEDFIC 2, Cohort 2, n = 16) was 3 (18.8) n (%) and the “TEAEs leading to discontinuation, patients” value (shortened to “TEAEs leading”) (PEDFIC 2, Cohort 2, n = 16) was 2 (12.5) n (%). The “Any TEAE, patients” value (PEDFIC 2, P1O, n = 34) was 28 (82.4) n (%), the “Drug-related TEAE by preferred term: Blood bilirubin increased” value (PEDFIC 2, P1O, n = 34) was 4 (11.8) n (%) and the “Drug-related TEAE … Cough” value (PEDFIC 2, P1O, n = 34) was 8 (23.5) n (%). The “Drug-related TEAE … Diarrhea” value (PEDFIC 2, P1O, n = 34) was 6 (17.6) n (%), the “Drug-related TEAE … INR increased” value (PEDFIC 2, P1O, n = 34) was 2 (5.9) n (%) and the “Drug-related TEAE … Pruritus” value (PEDFIC 2, P1O, n = 34) was 4 (11.8) n (%). For the same molecule, the “Drug-related TEAE … Pyrexia” value (PEDFIC 2, P1O, n = 34) was 7 (20.6) n (%), the “Drug-related TEAE … URTI” value (PEDFIC 2, P1O, n = 34) was 9 (26.5) n (%) and the “Drug-related TEAEs, patients” value (PEDFIC 2, P1O, n = 34) was 10 (29.4) n (%). The “Mild TEAE, patients” value (PEDFIC 2, P1O, n = 34) was 17 (50.0) n (%), the “Moderate TEAE, patients” value (PEDFIC 2, P1O, n = 34) was 10 (29.4) n (%) and the “Serious TEAEs, patients” value (PEDFIC 2, P1O, n = 34) was 0 n (%). The “Severe TEAE, patients” value (PEDFIC 2, P1O, n = 34) was 1 (2.9) n (%), the “TEAEs leading” value (PEDFIC 2, P1O, n = 34) was 0 n (%) and the “Any TEAE, patients” value (PEDFIC 2, P1P, n = 19) was 14 (73.7) n (%). The “Drug-related TEAE by preferred term: Blood bilirubin increased” value (PEDFIC 2, P1P, n = 19) was 2 (10.5) n (%), the “Drug-related TEAE … Cough” value (PEDFIC 2, P1P, n = 19) was 2 (10.5) n (%) and the “Drug-related TEAE … Diarrhea” value (PEDFIC 2, P1P, n = 19) was 1 (5.3) n (%). For the same molecule, the “Drug-related TEAE … INR increased” value (PEDFIC 2, P1P, n = 19) was 2 (10.5) n (%), the “Drug-related TEAE … Pruritus” value (PEDFIC 2, P1P, n = 19) was 2 (10.5) n (%) and the “Drug-related TEAE … Pyrexia” value (PEDFIC 2, P1P, n = 19) was 4 (21.1) n (%). The “Drug-related TEAE … URTI” value (PEDFIC 2, P1P, n = 19) was 5 (26.3) n (%), the “Drug-related TEAEs, patients” value (PEDFIC 2, P1P, n = 19) was 5 (26.3) n (%) and the “Mild TEAE, patients” value (PEDFIC 2, P1P, n = 19) was 6 (31.6) n (%). The “Moderate TEAE, patients” value (PEDFIC 2, P1P, n = 19) was 7 (36.8) n (%), the “Serious TEAEs, patients” value (PEDFIC 2, P1P, n = 19) was 3 (15.8) n (%) and the “Severe TEAE, patients” value (PEDFIC 2, P1P, n = 19) was 1 (5.3) n (%). The “TEAEs leading” value (PEDFIC 2, P1P, n = 19) was 1 (5.3) n (%), the “mean serum chemistry, hematology, urinalysis, international normalized ratio values” (PEDFIC 2, laboratory assessments) was “No clinically significant changes or safety signals” and the “patients reporting mild/moderate TEAEs” value (PEDFIC 2, of 50 patients overall with any TEAE) was 45 patients. For the same molecule, the “rate of discontinuations due to TEAEs” value (PEDFIC 2 overall) was less than 30, the “patients overall with any TEAE” value (PEDFIC 2 overall (69 patients)) was 50 patients and the incidence of diarrhea (PEDFIC 2 overall, 7 patients, through week 24) was 10.1%. The “deaths or drug-related serious TEAEs” value (PEDFIC 2 through week 24) was “no deaths or drug-related serious TEAEs occurred” and the tolerability (PEDFIC 2 through week 24, 120 μg/kg/day) was “generally well tolerated”.
